Here are results for 1 molecule from publication PMC8262977, “A Dual-Specificity Inhibitor Targets Polyphosphate Kinase 1 and 2 Enzymes To Attenuate Virulence of Pseudomonas aeruginosa” (mBio, 2021).

One series deals with P. aeruginosa. In words: C. elegans solid-phase slow killing (SK) infection assay. The series is classed as in vivo, Caenorhabditis elegans. Conditions: 100 μM gallein. On the procedure:
(§1) Wild-type N2 C. elegans and the glp-4 conditionally sterile mutant strain were obtained from the Caenorhabditis Genetics Center. Liquid killing assays were conducted using glp-4 mutant worms as described previously ([35]), with the exception of survival being scored manually under a Zeiss light microscope instead of via Sytox Orange staining. Nematodes were scored as dead when they no longer moved when tapped. Solid killing was conducted using glp-4 as described previously ([34]), with the indicated concentration of inhibitor impregnated into the SK agar. Bacterial CFU accumulation in WT N2 worms was quantified as described previously ([56]). Briefly, age-synchronized embryos were spotted onto bacterium-seeded nematode growth medium (NGM) agar plates impregnated with inhibitor or DMSO. Embryos were incubated at 25°C for 3 days, after which point adult worms were harvested, washed, lysed, and enumerated for CFU.

The test system of series [1] is P. aeruginosa PA14. In words: Pyocyanin quantification (absorbance at 520 nm). The series is classed as cell-based, Pseudomonas aeruginosa. The procedure:
Fifty-milliliter P. aeruginosa cultures in 2.5% (wt/vol) LB (Miller; Bioshop) were grown to stationary phase in 125-ml Erlenmeyer flasks with 180-rpm shaking at 37°C for 18 h. Cultures were centrifuged at 18,000 rpm for 30 min to clarify the supernatant, which was then filter sterilized. Pyoverdine was quantified spectrophotometrically at 403 nm as described previously ([55]). Pyocyanin was extracted via chloroform and treated with HCl to yield a red product that was quantified at 520 nm ([55]). To account for any colorimetric interference by inhibitors, cell-free blank readings were subtracted from each sample.

Another series has as its target T1, P. aeruginosa PPK2B (Pseudomonas aeruginosa, UniProt Q9I154).
T1 construct: MBP (N, cleaved yes); His tag (N, cleaved yes); made in house; host or cells: E. coli BL21(DE3)
In words: PPK2B polyP synthesis from ATP, toluidine blue detection. The series is classed as biochemical. Conditions: polyP synthesis from ATP; 275 nM enzyme; read-out: IC50 PPK2B. On the procedure: Compounds were synthesized as outlined in Text S1. Compounds were dissolved in DMSO to make 10 mM stocks and added to a 200 μM final concentration for initial screening. The screen for PPK1 inhibitors was conducted by measuring polyP synthesis activity as described previously ([12]), with the exception of the polyP detection method (see Text S1). The reaction mix contained 50 mM HEPES-KOH, pH 7.5, 40 mM (NH4)2SO4, 4 mM MgSO4, 60 mM creatine phosphate, 0.0625 mg/ml creatine kinase (Sigma; from rabbit muscle), 5 mM ATP, and 275 nM PPK1 (added last). One-hundred-microliter reaction mixtures were incubated at 37°C for 30 min, after which time 50-μl aliquots were withdrawn and added to 1,000 μl of 6-mg/liter toluidine blue dissolved in 40 mM acetic acid to quench the reaction and quantify polyP ([27]). The A630/530 nm ratio was then recorded, and the values obtained were corrected by subtracting the corresponding blanks (all ingredients except enzyme). The amount of polyP synthesized was calculated using a standard curve (Fig. S1A). Any compounds showing 50% or greater reduction in activity relative to the DMSO control were subjected to further IC50 analysis.
All IC50 and kinetic assay mixtures contained equimolar amounts (275 nM) of PPK to ensure valid comparison between different enzymes. PolyP synthesis activity (for PPK1 and PPK2B) was assayed using the reaction buffer and conditions described above. ATP concentration was varied as indicated for kinetic experiments. Curves were fit using GraphPad Prism V9.

For series [2], the system named is P. aeruginosa PA14. In words: Bacterial polyP accumulation assay after phosphate starvation. The series is classed as cell-based, Pseudomonas aeruginosa. On the procedure: P. aeruginosa polyP levels following nutrient deprivation in morpholinepropanesulfonic acid (MOPS) minimal medium were assessed as described previously ([8]), with slight variations. Briefly, overnight cultures were grown in 5 ml LB in the presence of inhibitor or DMSO as indicated. Cultures were centrifuged for 10 min at 3,900 rpm to pellet cells, which were then resuspended in MOPS minimal medium containing 100 μM phosphate and the indicated quantity of inhibitor or DMSO. Cultures were incubated at 37°C for 2 h to allow polyP accumulation and then subsequently pelleted, resuspended in guanidinium thiocyanate (GITC) lysis buffer, and boiled at 95°C for 5 min. PolyP was purified via silica spin column as described previously ([8]), with the exception of using 50 nM PPK2A instead of E. coli PPK to convert polyP to ATP. An Invitrogen ATP determination kit (ThermoFisher) was used per the manufacturer’s instructions for ATP quantification. Luminescence was recorded on a SpectraMax iD3 microplate reader (Molecular Devices).

The test system of the next series is C. elegans. In words: Toxicity toward C. elegans (OP50 + gallein curves). The series is classed as in vivo, Caenorhabditis elegans. Conditions: 100 μM. The procedure:
as §1, with “We tested both liquid killing (LK) and solid-phase slow killing (SK) models of infection, as these two assays are reliant upon distinct mechanisms of P. aeruginosa pathogenesis ([34], [35]). […]. Wild-type” for “Wild-type”

The next series concerns HEK293T cells. In words: HEK293T cytotoxicity assay, trypan blue. The series is classed as cell-based, human. Conditions: concentrations up to 100 μM, 48 h incubation. The procedure: HEK293 cells were grown in Dulbecco’s modified Eagle’s medium supplemented with 10% fetal bovine serum at 5% CO2 and 37°C. Cells were grown until a confluent monolayer was formed in 12-well culture plates, at which point inhibitors or DMSO was added. After 48-h incubation, cells were detached with trypsin and percent viability was scored via a hemocytometer and trypan blue staining.

Setting [3] is: WT: DMSO control vs 100 µM gallein.

T1 sequence (Q9I154 whole entry): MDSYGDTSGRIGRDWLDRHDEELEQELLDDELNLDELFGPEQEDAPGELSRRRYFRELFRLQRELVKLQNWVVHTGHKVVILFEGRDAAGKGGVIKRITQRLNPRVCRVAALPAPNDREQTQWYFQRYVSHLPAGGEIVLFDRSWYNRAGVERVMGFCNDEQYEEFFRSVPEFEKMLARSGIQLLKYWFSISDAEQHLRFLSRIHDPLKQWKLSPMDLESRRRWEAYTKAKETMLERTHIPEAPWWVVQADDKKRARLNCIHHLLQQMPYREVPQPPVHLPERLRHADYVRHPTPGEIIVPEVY

For `O=C1OC2(c3ccccc31)c1ccc(O)c(O)c1Oc1c2ccc(O)c1O` [RT4 (gallein), gallein], the C. elegans survival result in the series with P. aeruginosa is on record as “significantly improved survival rates”. In addition, the pyocyanin production entry is “reproduced the marked pyoverdine and pyocyanin defects observed in the ΔpolyP strain” in the series on P. aeruginosa PA14 [1] (WT, Δppk1 and Δppk2 strains); “no significant decrease of either toxin” in the series with P. aeruginosa PA14 [1] (ΔpolyP strain). The “Pyocyanin, Mean Diff.” value with P. aeruginosa PA14 [1] (setting [3]) is recorded as 0.2097; with P. aeruginosa PA14 [1] (∆ppk1, 2a, 2b, 2c: DMSO control vs 100 µM gallein) it was 0.07567; in the series on P. aeruginosa PA14 [1] (∆ppk1: DMSO control vs 100 µM gallein), 0.08867; with P. aeruginosa PA14 [1] (∆ppk2a, 2b, 2c: DMSO control vs 100 µM gallein), 0.2097. In addition, the IC50 on P. aeruginosa PPK2B came out at 20 ± 2 µM. Moreover, the polyP levels entry in the series on P. aeruginosa PA14 [2] (WT, phosphate starvation medium, nonbactericidal amounts) is given as “reduced wild-type (WT) polyP levels in a dose-dependent manner”; in the series with P. aeruginosa PA14 [2] (Δppk1 strain), “significantly reduced polyP levels”; in the series on P. aeruginosa PA14 [2] (Δppk1 Δppk2A Δppk2B Δppk2C (ΔpolyP) strain), “had no effect”; in the series with P. aeruginosa PA14 [2] (Δppk2A Δppk2B Δppk2C strain), “reduced polyP in this strain to a similar extent as that in the WT”. Further, the “Bacterial polyP accumulation, Mean Diff.” value with P. aeruginosa PA14 [2] (setting [3]) came out at 68.65; in the series with P. aeruginosa PA14 [2] (Δppk1, Δppk2A, Δppk2B, Δppk2C: DMSO control vs 100 µM gallein), 2.148; in the series with P. aeruginosa PA14 [2] (Δppk1: DMSO control vs 100 µM gallein) it was 29.11; in the series with P. aeruginosa PA14 [2] (Δppk2A, Δppk2B, Δppk2C: DMSO control vs 100 µM gallein), 74.9. Further, the “toxicity toward C. elegans” value in the series with C. elegans is listed as “no gallein toxicity toward C. elegans was observed”. In addition, the cytotoxicity result in the series with HEK293T cells is “noncytotoxic”.
